Read-outs that look alike come from different tables or passages of the source.
Key:
Assay in all cases: biochemical
Type in all cases: biochemical
382 unique human kinases [1] = target: T1, 382 unique human kinases (Homo sapiens, UniProt Q96L34); conditions: kinase MARK4, compound 10 uM; for remaining activity at 10 µM: read-out: % Enzyme Activity (relative to DMSO controls)
T1 construct: purchased Reaction Biology (HotSpot contract assay)
T1 sequence (Q96L34 1-752): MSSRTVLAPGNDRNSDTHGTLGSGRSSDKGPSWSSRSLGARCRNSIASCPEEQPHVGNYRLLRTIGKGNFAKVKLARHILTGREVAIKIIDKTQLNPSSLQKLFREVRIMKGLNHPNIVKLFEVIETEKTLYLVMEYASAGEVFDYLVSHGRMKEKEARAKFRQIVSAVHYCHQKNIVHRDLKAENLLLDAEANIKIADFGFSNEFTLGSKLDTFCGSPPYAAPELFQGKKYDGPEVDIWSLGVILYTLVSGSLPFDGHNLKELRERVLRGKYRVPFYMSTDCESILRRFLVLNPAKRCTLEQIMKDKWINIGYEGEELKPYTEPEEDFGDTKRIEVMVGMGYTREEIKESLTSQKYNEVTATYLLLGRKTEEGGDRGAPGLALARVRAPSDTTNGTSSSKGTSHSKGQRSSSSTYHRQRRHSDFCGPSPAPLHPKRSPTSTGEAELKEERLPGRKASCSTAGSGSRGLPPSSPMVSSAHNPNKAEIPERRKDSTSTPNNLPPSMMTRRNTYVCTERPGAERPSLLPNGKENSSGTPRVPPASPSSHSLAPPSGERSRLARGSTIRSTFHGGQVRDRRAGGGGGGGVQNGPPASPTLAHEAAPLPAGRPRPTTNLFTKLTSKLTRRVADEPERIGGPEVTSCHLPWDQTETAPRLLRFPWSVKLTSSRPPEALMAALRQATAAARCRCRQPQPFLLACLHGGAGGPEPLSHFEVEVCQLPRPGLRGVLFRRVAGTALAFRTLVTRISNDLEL

382 unique human kinases [2] = target: T2, 382 unique human kinases (Homo sapiens, UniProt P05129); conditions: kinase PKCg, compound 10 uM; for remaining activity at 10 µM: read-out: % Enzyme Activity (relative to DMSO controls)
T2 construct: purchased Reaction Biology (HotSpot contract assay)

382 unique human kinases [3] = target: T3, 382 unique human kinases (Homo sapiens, UniProt P00533, A750P/DEL747-749); conditions: EGFR (d747-749/A750P), 10 uM; for remaining activity at 10 µM: read-out: % Enzyme Activity (relative to DMSO controls)
T3 construct: purchased Reaction Biology (HotSpot contract assay)

382 unique human kinases [4] = target: T4, 382 unique human kinases (Homo sapiens, UniProt O96017, I157T); conditions: CHK2 (I157T), 10 uM; for remaining activity at 10 µM: read-out: % Enzyme Activity (relative to DMSO controls)
T4 construct: purchased Reaction Biology (HotSpot contract assay)

382 unique human kinases [5] = target: T5, 382 unique human kinases (Homo sapiens, UniProt P06493); conditions: for remaining activity at 10 µM: read-out: % Enzyme Activity (relative to DMSO controls)
T5 construct: purchased Reaction Biology (HotSpot contract assay)

382 unique human kinases [6] = target: T6, 382 unique human kinases (Homo sapiens, UniProt Q9NRH2); conditions: SNRK, 10 uM; for remaining activity at 10 µM: read-out: % Enzyme Activity (relative to DMSO controls)
T6 construct: purchased Reaction Biology (HotSpot contract assay)
T6 sequence (Q9NRH2 1-765): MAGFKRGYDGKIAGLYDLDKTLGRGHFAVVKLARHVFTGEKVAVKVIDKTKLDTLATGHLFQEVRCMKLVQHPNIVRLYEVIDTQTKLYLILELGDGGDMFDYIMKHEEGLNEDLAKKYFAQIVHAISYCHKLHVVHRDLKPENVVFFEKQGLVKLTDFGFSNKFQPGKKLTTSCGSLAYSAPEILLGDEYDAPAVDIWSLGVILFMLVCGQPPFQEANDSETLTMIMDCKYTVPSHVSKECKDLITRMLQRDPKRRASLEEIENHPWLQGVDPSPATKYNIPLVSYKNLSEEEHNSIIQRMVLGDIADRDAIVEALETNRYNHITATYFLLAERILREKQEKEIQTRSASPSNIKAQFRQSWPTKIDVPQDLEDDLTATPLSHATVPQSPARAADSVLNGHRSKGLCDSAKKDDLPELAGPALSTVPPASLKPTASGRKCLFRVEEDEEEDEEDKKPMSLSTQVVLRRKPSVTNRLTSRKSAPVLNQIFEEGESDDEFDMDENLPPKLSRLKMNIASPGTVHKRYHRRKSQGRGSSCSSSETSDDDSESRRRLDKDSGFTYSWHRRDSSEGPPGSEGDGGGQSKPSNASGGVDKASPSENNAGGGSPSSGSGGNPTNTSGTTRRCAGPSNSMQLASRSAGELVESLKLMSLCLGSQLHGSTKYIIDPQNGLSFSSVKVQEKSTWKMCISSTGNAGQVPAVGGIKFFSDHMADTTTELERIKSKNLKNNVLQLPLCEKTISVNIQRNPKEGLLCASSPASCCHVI

382 unique human kinases [7] = target: T7, 382 unique human kinases (Homo sapiens, UniProt P08581, T1173I); conditions: c-MET (T1173I), compound at 10 uM, duplicate values; for remaining activity at 10 µM: read-out: % Enzyme Activity (relative to DMSO controls)
T7 construct: purchased Reaction Biology (HotSpot contract assay)

382 unique human kinases [8] = target: T8, 382 unique human kinases (Homo sapiens, UniProt P10721, V559D/V654A); conditions: c-Kit (V559D/V654A), 10 uM; for remaining activity at 10 µM: read-out: % Enzyme Activity (relative to DMSO controls)
T8 construct: purchased Reaction Biology (HotSpot contract assay)

382 unique human kinases [9] = target: T9, 382 unique human kinases (Homo sapiens, UniProt Q9UEE5); conditions: DRAK1/STK17A, 10 uM; for remaining activity at 10 µM: read-out: % Enzyme Activity (relative to DMSO controls)
T9 construct: purchased Reaction Biology (HotSpot contract assay)
T9 sequence (Q9UEE5 1-414): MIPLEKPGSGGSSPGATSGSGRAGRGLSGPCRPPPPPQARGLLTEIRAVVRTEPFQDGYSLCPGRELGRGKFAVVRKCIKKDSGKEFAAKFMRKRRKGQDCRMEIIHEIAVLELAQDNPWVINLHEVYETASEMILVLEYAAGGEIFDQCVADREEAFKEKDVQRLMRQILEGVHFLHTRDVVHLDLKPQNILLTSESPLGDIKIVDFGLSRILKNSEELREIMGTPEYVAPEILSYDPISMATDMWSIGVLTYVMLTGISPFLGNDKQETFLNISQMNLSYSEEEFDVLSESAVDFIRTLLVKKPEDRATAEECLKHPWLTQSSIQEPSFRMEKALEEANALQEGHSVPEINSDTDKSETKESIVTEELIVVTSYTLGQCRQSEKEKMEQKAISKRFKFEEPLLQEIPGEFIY

[10] = kinase CDK1/cyclin A, compound 10 uM
[11] = kinase CDK1/cyclin E, compound 10 uM

T8 sequence (P10721 26-976 V559D/V654A): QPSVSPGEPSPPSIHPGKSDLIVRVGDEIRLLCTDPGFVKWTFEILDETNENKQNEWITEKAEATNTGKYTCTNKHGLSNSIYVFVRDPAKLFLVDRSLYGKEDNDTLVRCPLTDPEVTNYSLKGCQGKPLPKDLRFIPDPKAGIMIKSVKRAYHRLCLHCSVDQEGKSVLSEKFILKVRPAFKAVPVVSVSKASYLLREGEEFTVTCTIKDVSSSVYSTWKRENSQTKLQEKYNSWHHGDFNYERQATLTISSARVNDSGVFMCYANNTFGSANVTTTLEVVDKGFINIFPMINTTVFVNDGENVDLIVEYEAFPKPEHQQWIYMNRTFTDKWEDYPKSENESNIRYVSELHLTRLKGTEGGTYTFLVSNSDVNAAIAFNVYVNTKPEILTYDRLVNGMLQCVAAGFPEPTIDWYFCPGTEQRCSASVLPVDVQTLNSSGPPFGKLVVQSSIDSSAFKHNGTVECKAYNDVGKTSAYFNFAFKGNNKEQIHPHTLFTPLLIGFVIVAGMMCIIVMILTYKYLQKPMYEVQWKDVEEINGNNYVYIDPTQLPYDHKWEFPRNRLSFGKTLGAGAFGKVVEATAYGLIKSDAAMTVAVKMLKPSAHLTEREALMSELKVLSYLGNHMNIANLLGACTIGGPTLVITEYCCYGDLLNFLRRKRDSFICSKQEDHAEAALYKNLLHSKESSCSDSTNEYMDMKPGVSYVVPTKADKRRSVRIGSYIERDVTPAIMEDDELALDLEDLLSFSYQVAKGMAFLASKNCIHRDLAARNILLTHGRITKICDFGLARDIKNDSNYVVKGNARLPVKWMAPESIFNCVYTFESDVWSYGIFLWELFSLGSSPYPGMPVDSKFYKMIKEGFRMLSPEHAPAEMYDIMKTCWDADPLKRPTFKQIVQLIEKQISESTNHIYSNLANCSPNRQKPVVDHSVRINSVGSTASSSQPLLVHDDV
T5 sequence (P06493 whole entry): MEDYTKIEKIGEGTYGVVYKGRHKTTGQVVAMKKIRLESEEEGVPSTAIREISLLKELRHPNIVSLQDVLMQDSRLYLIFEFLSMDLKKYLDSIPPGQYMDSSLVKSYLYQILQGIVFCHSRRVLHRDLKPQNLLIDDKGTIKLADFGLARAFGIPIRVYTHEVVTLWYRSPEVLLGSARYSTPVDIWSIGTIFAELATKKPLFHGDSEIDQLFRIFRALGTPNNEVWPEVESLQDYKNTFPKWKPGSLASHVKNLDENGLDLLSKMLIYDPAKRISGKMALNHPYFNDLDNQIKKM
T4 sequence (O96017 whole entry I157T): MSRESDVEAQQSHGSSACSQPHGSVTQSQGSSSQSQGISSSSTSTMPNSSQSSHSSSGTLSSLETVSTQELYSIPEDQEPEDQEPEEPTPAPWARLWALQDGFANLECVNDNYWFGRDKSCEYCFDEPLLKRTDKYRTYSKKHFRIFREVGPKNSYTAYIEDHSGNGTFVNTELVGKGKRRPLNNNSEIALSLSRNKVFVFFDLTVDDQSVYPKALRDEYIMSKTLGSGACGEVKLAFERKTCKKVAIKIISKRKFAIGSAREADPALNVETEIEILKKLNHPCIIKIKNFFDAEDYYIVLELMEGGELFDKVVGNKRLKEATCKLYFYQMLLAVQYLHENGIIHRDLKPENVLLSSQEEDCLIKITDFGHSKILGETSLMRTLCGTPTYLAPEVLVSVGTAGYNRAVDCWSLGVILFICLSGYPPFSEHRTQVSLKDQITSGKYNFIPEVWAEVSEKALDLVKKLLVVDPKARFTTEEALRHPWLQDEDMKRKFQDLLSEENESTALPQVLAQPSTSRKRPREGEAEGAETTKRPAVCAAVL

SMILES	remaining activity at 10 µM (382 unique human kinases [1])	remaining activity at 10 µM (382 unique human kinases [2])	remaining activity at 10 µM (382 unique human kinases [3])	remaining activity at 10 µM (382 unique human kinases [4])	remaining activity at 10 µM (382 unique human kinases [5]; CDK1/cyclin B, 10 uM)	remaining activity at 10 µM (382 unique human kinases [5]; [10])	remaining activity at 10 µM (382 unique human kinases [5]; [11])	remaining activity at 10 µM (382 unique human kinases [6])	remaining activity at 10 µM (382 unique human kinases [7])	remaining activity at 10 µM (382 unique human kinases [8])	remaining activity at 10 µM (382 unique human kinases [9])	also measured
CC(C)c1cc(-c2n[nH]c(=O)n2-c2ccc3c(ccn3C)c2)c(O)cc1O [Ganetespib (STA9090)]	91%	91.3%	67.9%	76.6%	78.5%	83.4%	81.7%	76.8%	102%			
CCNC(=O)c1noc(-c2cc(C(C)C)c(O)cc2O)c1-c1ccc(CN2CCOCC2)cc1 [Luminespib]										103%	99.9%	% Enzyme Activity (relative to DMSO controls) (382 unique human kinases [8]): 102.17%; % Enzyme Activity (relative to DMSO controls) (382 unique human kinases [9]): 99.90%
CCNC(=O)c1noc(-c2cc(C(C)C)c(O)cc2O)c1-c1ccc(CN2CCOCC2)cc1 [Luminespib (AUY-922)]	97.1%	99.7%	102%	102%	86.8%	97.5%	113%	80.5%	118%			% Enzyme Activity (relative to DMSO controls) (382 unique human kinases [1]): 95.99%; % Enzyme Activity (relative to DMSO controls) (382 unique human kinases [2]): 97.02%; % Enzyme Activity (relative to DMSO controls) (382 unique human kinases [3]): 98.51%; % Enzyme Activity (relative to DMSO controls) (382 unique human kinases [4]): 100.31%; % Enzyme Activity (relative to DMSO controls) (382 unique human kinases [5]; CDK1/cyclin B, 10 uM): 86.64%; % Enzyme Activity (relative to DMSO controls) (382 unique human kinases [5]; [10]): 96.86%; % Enzyme Activity (relative to DMSO controls) (382 unique human kinases [5]; [11]): 108.79%; % Enzyme Activity (relative to DMSO controls) (382 unique human kinases [6]): 79.00%; % Enzyme Activity (relative to DMSO controls) (382 unique human kinases [7]): 114.35%
CC(C)c1cc(-c2n[nH]c(=O)n2-c2ccc3c(ccn3C)c2)c(O)cc1O [Ganetespib]										91.1%	106%	

Reference: PMC8550792, “Evolution of kinase polypharmacology across HSP90 drug discovery” (Cell Chemical Biology, 2021)
